The values below come from BindingDB's records for doi:10.1021/jm040794i (2005).

The target of assay [1] is Somatostatin receptor type 5 (Homo sapiens, UniProt P35346). As to the kind of experiment: In vitro inhibition of [125I][Leu8,D-Trp22,Tyr25] somatostatin 28 binding to human somatostatin receptor type 5 expressed in CHO-K1 cells; (n=3).
For assay [2], the target named is Somatostatin receptor type 1 (Homo sapiens, UniProt P30872). As to the kind of experiment: In vitro inhibition of [125I][Leu8,D-Trp22,Tyr25] somatostatin 28 binding to human somatostatin receptor type 1 expressed in CHO-K1 cells; (n=3).

As usually defined, the IC50 is the concentration that inhibits the measured activity by half. A high value points to weaker potency in that assay.

Sequence of Somatostatin receptor type 1 (P30872 whole entry): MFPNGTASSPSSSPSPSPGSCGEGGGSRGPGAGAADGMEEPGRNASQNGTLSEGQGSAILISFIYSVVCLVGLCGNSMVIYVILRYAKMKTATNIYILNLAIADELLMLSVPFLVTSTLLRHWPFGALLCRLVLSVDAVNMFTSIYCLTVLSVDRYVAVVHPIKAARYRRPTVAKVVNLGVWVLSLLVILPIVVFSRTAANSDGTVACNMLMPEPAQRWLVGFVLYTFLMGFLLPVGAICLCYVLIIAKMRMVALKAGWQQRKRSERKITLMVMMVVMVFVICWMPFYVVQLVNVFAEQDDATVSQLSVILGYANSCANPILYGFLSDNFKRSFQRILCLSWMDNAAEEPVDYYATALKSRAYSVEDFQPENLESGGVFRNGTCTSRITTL
Sequence of Somatostatin receptor type 5 (P35346 whole entry): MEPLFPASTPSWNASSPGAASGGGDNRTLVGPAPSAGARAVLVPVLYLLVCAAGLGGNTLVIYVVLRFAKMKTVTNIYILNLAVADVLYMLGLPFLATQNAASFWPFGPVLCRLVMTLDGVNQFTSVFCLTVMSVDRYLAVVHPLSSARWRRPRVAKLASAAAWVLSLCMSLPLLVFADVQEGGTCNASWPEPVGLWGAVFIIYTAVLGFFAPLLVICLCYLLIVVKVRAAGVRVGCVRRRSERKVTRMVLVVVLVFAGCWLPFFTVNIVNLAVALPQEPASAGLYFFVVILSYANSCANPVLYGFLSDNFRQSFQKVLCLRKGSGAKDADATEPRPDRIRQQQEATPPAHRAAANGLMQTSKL

As to `C[C@@H](O)[C@H](NC(=O)[C@@H]1CSSC[C@H](NC(=O)[C@@H](Cc2ccccc2)NC(=O)CN2CCN(CC(=O)O)CCN(CC(=O)O)CCN(CC(=O)O)CC2)C(=O)N[C@@H](Cc2ccc(O)cc2)C(=O)N[C@H](Cc2c[nH]c3ccccc23)C(=O)N[C@@H](CCCCN)C(=O)N[C@@H]([C@@H](C)O)C(=O)N1)C(=O)O`, the IC50 in assay [1] came to 377 nM. For `C[C@@H](O)[C@H](NC(=O)[C@@H]1CSSC[C@H](NC(=O)[C@H](N)Cc2ccccc2)C(=O)N[C@@H](Cc2ccc(O)c(I)c2)C(=O)N[C@H](Cc2c[nH]c3ccccc23)C(=O)N[C@@H](CCCCN)C(=O)N[C@@H]([C@@H](C)O)C(=O)N1)C(=O)O` [4-[(4R,7S,10S,13R,16S)-19-(2-azaniumyl-3-phenylpropanamido)-4-{[(1S)-1-carboxy-2-hydroxypropyl]carbamoyl}-16-[(4-hydroxy-3-iodophenyl)methyl]-7-(1-hydroxyethyl)-13-(1H-indol-3-ylmethyl)-6,9,12,15,18-pentaoxo-1,2-dithia-5,8,11,14,17-pentaazacycloicosan-10-yl]butan-1-aminium], in assay [2], the half-inhibitory concentration (IC50) was above 10000 nM.
